Holding throughout (type): biochemical
The target of one experiment is T1, Recombinant human TRKC (Homo sapiens, UniProt Q16288).
T1 construct: purchased Carna Biosciences
In words: In vitro activity test on TRKC kinase (HTRF KinEASE TK). Conditions: 25.64 μM ATP, 40 min. In outline:
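Recombinant human TRKC (0.037 ng/μL) with 1 μM biotinylated TK substrate, 25.64 μM ATP, 5 mM MgCl2, 1 mM DTT, 40 min at room temperature; compound 1 μM to 0.05 nM, 1% DMSO. HTRF 665/620 ratio after overnight detection; IC50 from 4-parameter fit.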

A further experiment has as its target T2, Recombinant human TRKB (Homo sapiens, UniProt Q16620).
T2 construct: purchased Carna Biosciences
The experiment in a line: In vitro activity test on TRKB kinase (HTRF KinEASE TK). Conditions: 4.77 μM ATP, 50 min. In outline: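 Recombinant human TRKB (0.037 ng/μL) phosphorylated 1 μM biotinylated TK substrate at 4.77 μM ATP, 5 mM MgCl2, 1% DMSO, 50 min at room temperature; compounds 1 μM–0.05 nM. HTRF KinEASE detection overnight; 665/620 ratio converted to inhibition and IC50 from 4-parameter fit.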

Experiment [1] addresses T3, recombinant human TRKA (G667C) (Homo sapiens, UniProt P04629, G667C).
T3 construct: purchased SignalChem
In words: In vitro activity test on mutant TRKA (G667C) (HTRF KinEASE TK). As to conditions: 5.5 μM ATP, 30 min. As for the experimental part:
(§1) Biological Test Example 2 In Vitro Activity Test on Mutant TRKA (G595R), TRKA (G667C) and TRKC (G623R)
(§2) The recombinant human TRKA (G595R), TRKA (G667C) and TRKC (G623R) proteins were purchased from SignalChem. HTRF kinEASE TK kit was purchased from CisbioBioassays. Synergy Neo 2 of Biotek was used to read the plate.
(§3) The tested compound was subjected to 4-fold serial dilution to reach a final concentration of 1 μM to 0.004 nM (10 concentrates), duplicates for each concentration; and 1% DMSO was present in the detection reaction.
0.026 ng/μL TRKA (G667C) kinase, 1 μM TK Substrate-biotin polypeptide substrate, 5.5 μm ATP, 1× enzymatic buffer, 5 mM MgCl2, and 1 mM DTT. The detection plate was White Proxiplate 384-Plus plate (PerkinElmer), and incubated at room temperature for 30 min, the assay volume was 10 μL.
(§4) 10 μL of detection reagent was added to the plate (containing 0.125 μM SA-XL665 and 5 μL 1×TK-Antibody) and incubated overnight at room temperature, and Synergy Neo 2 was used to read the plate.
(§5) The value of 665/620 Ratio minus the value of negative control wells without enzyme, then the obtained value was converted according to the following formula into inhibition rate (%)=(1−Ratiotest/Ratiomax)×100%. Ratiomax was a positive control without tested compound, and Ratiotest was the value of each concentration of different compounds. IC50 (nM) data was obtained by 4 parameter curve fitting (see Table 1).

The target in experiment [2] is T4, recombinant human TRKA (G595R) (Homo sapiens, UniProt P04629, G595R).
T4 construct: purchased SignalChem
The experiment in a line: In vitro activity test on mutant TRKA (G595R) (HTRF KinEASE TK). As to conditions: 4.5 μM ATP, 30 min. As for the experimental part: as §1, §2, §3
0.12 ng/μL TRKA (G595R) kinase, 1 μM TK Substrate-biotin polypeptide substrate, 4.5 μM ATP, 1× enzymatic buffer, 5 mM MgCl2, and 1 mm DTT. The detection plate was White Proxiplate384-Plus plate (PerkinElmer), and incubated at room temperature for 30 min, and the assay volume was 10 μL.
as §4, §5

In the next experiment the target is T5, Recombinant human TRKA (Homo sapiens, UniProt P04629).
T5 construct: purchased Carna Biosciences
The experiment in a line: In vitro activity test on TRKA kinase (HTRF KinEASE TK). As to conditions: 14.68 μM ATP, 40 min. In outline:
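Reaction: 0.2 ng/μL TRKA, 1 μM biotinylated TK substrate, 14.68 μM ATP, 5 mM MgCl2, 1 mM DTT, 1% DMSO, 40 min at room temperature. Compounds tested at 1 μM to 0.05 nM (10-point, 3-fold, duplicate). HTRF 665/620 ratio converted to % inhibition versus no-compound control; IC50 by 4-parameter fit.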

A value given as a limit tells only on which side of the number the result lay.

T1 sequence (Q16288 32-839): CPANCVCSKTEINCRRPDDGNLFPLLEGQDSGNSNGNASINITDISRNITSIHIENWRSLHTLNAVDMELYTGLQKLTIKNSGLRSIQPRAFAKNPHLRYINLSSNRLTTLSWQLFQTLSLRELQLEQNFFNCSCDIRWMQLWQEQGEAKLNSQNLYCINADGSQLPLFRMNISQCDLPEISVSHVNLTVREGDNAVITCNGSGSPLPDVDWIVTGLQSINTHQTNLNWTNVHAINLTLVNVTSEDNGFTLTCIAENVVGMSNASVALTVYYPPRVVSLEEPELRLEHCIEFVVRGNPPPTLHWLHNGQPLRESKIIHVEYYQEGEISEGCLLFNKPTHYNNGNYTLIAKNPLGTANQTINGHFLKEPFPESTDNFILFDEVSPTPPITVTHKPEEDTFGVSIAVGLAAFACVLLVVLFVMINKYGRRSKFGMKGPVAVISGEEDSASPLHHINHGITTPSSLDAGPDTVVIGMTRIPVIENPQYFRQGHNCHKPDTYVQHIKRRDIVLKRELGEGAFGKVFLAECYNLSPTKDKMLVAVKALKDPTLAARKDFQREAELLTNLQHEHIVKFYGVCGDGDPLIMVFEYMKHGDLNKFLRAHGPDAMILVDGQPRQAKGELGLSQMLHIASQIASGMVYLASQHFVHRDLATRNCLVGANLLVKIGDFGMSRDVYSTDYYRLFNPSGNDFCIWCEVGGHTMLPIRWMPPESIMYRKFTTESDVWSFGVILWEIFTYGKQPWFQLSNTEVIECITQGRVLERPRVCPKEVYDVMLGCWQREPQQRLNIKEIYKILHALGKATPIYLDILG
T2 sequence (Q16620 32-822): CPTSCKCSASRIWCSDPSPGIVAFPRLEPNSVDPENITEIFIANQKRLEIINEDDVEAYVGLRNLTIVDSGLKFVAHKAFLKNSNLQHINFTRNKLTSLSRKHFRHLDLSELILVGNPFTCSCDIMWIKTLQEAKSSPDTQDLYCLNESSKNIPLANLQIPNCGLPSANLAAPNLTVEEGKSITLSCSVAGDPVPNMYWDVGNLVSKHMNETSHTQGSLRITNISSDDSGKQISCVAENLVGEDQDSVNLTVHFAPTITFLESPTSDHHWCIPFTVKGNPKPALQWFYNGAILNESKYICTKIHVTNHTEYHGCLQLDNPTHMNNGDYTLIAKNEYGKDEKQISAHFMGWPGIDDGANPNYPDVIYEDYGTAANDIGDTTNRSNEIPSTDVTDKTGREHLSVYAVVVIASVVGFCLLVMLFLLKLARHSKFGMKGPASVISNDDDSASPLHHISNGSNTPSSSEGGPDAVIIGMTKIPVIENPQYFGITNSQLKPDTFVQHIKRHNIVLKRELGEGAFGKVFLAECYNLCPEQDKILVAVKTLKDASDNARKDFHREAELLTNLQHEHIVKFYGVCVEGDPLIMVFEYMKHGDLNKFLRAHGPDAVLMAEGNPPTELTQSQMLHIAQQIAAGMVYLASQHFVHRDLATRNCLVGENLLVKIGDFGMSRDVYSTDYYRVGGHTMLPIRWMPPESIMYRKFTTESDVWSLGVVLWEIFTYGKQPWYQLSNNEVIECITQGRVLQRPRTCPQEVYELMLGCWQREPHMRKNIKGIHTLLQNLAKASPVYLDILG
T4 sequence (P04629 33-796 G595R): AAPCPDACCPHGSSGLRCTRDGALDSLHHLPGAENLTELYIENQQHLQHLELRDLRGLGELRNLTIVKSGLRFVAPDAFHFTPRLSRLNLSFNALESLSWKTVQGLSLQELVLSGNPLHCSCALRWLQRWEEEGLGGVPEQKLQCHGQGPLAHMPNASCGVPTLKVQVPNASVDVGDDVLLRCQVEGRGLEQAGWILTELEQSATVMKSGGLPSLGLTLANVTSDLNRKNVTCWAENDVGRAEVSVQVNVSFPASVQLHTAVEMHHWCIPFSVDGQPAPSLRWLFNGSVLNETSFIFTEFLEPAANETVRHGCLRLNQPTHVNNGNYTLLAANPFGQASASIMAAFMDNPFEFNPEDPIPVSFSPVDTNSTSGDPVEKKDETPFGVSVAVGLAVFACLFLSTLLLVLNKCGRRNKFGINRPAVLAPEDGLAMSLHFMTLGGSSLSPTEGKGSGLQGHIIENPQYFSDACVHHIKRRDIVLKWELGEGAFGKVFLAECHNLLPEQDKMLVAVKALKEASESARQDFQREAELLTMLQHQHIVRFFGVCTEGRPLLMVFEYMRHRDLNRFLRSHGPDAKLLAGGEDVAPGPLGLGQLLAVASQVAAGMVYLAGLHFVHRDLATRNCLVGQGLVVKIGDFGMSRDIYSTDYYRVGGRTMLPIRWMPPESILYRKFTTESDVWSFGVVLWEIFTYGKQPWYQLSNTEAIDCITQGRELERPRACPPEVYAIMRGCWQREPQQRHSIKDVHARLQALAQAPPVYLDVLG
T3 sequence (P04629 33-796 G667C): as the sequence (P04629 33-796 G595R) above, with R563G, G635C counted along it
T5 sequence (P04629 33-796): as the sequence (P04629 33-796 G595R) above, with R563G counted along it

On to `O[C@H]1CCN(c2ncnc3ccc(N4C[C@@H](F)C[C@@H]4c4cc(F)ccc4F)nc23)C1` [Example 71, (S)-1-(6-((2R,4S)-2-(2,5-difluorophenyl)-4-fluoropyrrolidin-1-yl)pyrido[3,2-d]pyrimidine-4-yl)pyrrolidin-3-ol], for which the IC50 at Recombinant human TRKC is less than 1 nM; at Recombinant human TRKB it was less than 1 nM; in experiment [1] it was less than 10 nM; in experiment [2] it was less than 1 nM; on Recombinant human TRKA it was less than 1 nM.
Turning to `Fc1ccc(F)c([C@H]2CCCN2c2ccc3ncc(F)c(-c4cnn(C5CNC5)c4)c3n2)c1` [Example 28, (R)-8-(1-(azetidin-3-yl)-1H-pyrazol-4-yl)-2-(2-(2,5-difluorophenyl)pyrrolidin-1-yl)-7-fluoro-1,5-naphthyridine], the IC50 (at Recombinant human TRKC; on Recombinant human TRKB; in experiment [1]; in experiment [2]; on Recombinant human TRKA) was less than 10 nM each time.
`COc1ncc(F)cc1[C@H]1CCCN1c1ccc2ncc(Cl)c(-c3cnn(C4CCNCC4)c3)c2n1` [Example 30, (R)-7-chloro-2-(2-(5-fluoro-2-methoxypyridin-3-yl)pyrrolidin-1-yl)-8-(1-(piperidin-4-yl)-1H-pyrazol-4-yl)-1,5-naphthyridine]: the half-inhibitory concentration (IC50) was less than 10 nM at Recombinant human TRKC; less than 10 nM on Recombinant human TRKB; less than 10 nM in experiment [1]; less than 1 nM in experiment [2]; less than 1 nM at Recombinant human TRKA.
As to `Fc1ccc(F)c([C@H]2C[C@H](F)CN2c2ccc3ncc(Cl)c(-c4cnn([C@@H]5CCNC5)c4)c3n2)c1` [Example 56, 7-chloro-2-((2R,4S)-2-(2,5-difluorophenyl)-4-fluoropyrrolidin-1-yl)-8-(1-((R)-pyrrolidin-3-yl)-1H-pyrazol-4-yl)-1,5-naphthyridine], the IC50 at Recombinant human TRKC is less than 1 nM; on Recombinant human TRKB it was less than 10 nM; in experiment [1], less than 10 nM; in experiment [2], less than 10 nM; on Recombinant human TRKA, less than 1 nM.
Regarding `OC[C@H](O)CN1CCC(n2cc(-c3c(Cl)cnc4ccc(N5C[C@@H](F)C[C@@H]5c5cc(F)ccc5F)nc34)cn2)CC1` [Example 40, (R)-3-(4-(4-(3-chloro-6-((2R,4S)-2-(2,5-difluorophenyl)-4-fluoropyrrolidin-1-yl)-1,5-naphthyridin-4-yl)-1H-pyrazol-1-yl)piperidin-1-yl)propane-1,2-diol], the IC50 (at Recombinant human TRKC; at Recombinant human TRKB; in experiment [1]; in experiment [2]; at Recombinant human TRKA) was less than 1 nM throughout.
`O[C@H]1CCN(c2nc(-c3c(F)cnc4ccc(N5C[C@@H](F)C[C@@H]5c5cc(F)ccc5F)nc34)no2)C1` [Example 77, (S)-1-(3-(6-((2R,4S)-2-(2,5-difluorophenyl)-4-fluoropyrrolidin-1-yl)-3-fluoro-1,5-naphthyridin-4-yl)-1,2,4-oxadiazol-5-yl)pyrrolidin-3-ol]: the IC50 at Recombinant human TRKC is less than 10 nM; on Recombinant human TRKB it was less than 10 nM; in experiment [1], less than 50 nM; in experiment [2], less than 1 nM; on Recombinant human TRKA, less than 1 nM.
With `CN(C)S(=O)(=O)n1cc(-c2c(Cl)cnc3ccc(N4C[C@@H](F)C[C@@H]4c4cc(F)ccc4F)nc23)cn1` [Example 31], the IC50 at Recombinant human TRKC was less than 10 nM; on Recombinant human TRKB, less than 10 nM; in experiment [1], less than 100 nM; in experiment [2], less than 10 nM; on Recombinant human TRKA, less than 1 nM.
With `NC(=O)c1cnc2ccc(N3C[C@@H](F)C[C@@H]3c3cc(F)ccc3F)nc2c1-c1cnn(C2CCNCC2)c1` [Example 37, 6-((2R,4S)-2-(2,5-difluorophenyl)-4-fluoropyrrolidin-1-yl)-4-(1-(piperidin-4-yl)-1H-pyrazol-4-yl)-1,5-naphthyridin-3-carboxamide], the IC50 is less than 10 nM on Recombinant human TRKC; less than 10 nM at Recombinant human TRKB; less than 50 nM in experiment [1]; less than 10 nM in experiment [2]; less than 1 nM on Recombinant human TRKA.
On to `O=C(Nc1ccnc2ccc(N3CCC[C@@H]3c3cc(F)ccc3F)nc12)N1CC[C@H](O)C1` [Example 27, (S)—N-(6-((R)-2-(2,5-difluorophenyl)pyrrolidin-1-yl)-1,5-naphthyridin-4-yl)-3-hydroxypyrrolidin-1-carboxamide], for which the IC50 on Recombinant human TRKC is less than 1 nM; at Recombinant human TRKB, less than 1 nM; in experiment [1] it was less than 50 nM; in experiment [2], less than 1 nM; at Recombinant human TRKA it was less than 1 nM.
On to `Fc1ccc(F)c([C@H]2C[C@H](F)CN2c2ccc3ncc(F)c(-c4cnn(C5CNC5)c4)c3n2)c1` [Example 29, 8-(1-(azetidin-3-yl)-1H-pyrazol-4-yl)-2-((2R,4S)-2-(2,5-difluorophenyl)-4-fluoropyrrolidin-1-yl)-7-fluoro-1,5-naphthyridine], for which the IC50 (on Recombinant human TRKC; on Recombinant human TRKB; in experiment [1]; in experiment [2]; on Recombinant human TRKA) was less than 1 nM each time.
On to `CN1CCC(n2cc(-c3c(Cl)cnc4ccc(N5C[C@@H](F)C[C@@H]5c5cc(F)ccc5F)nc34)cn2)CC1` [Example 43, 7-Chloro-2-((2R,4S)-2-(2,5-difluorophenyl)-4-fluoropyrrolidin-1-yl)-8-(1-(1-methylpiperidine-4-yl)-1H-pyrazol-4-yl)-1,5-naphthyridine], for which the IC50 at Recombinant human TRKC is less than 1 nM; at Recombinant human TRKB, less than 1 nM; in experiment [1] it was less than 1 nM; in experiment [2], less than 10 nM; at Recombinant human TRKA, less than 1 nM.
Take `CN1CC(n2cc(-c3c(Cl)cnc4ccc(N5C[C@@H](F)C[C@@H]5c5cc(F)ccc5F)nc34)cn2)C1` [Example 23]: the IC50 at Recombinant human TRKC is less than 10 nM; at Recombinant human TRKB, less than 1 nM; in experiment [1], less than 1 nM; in experiment [2] it was less than 1 nM; at Recombinant human TRKA, less than 1 nM.
On to `O[C@@H]1CN=C(Nc2ccnc3ccc(N4C[C@@H](F)C[C@@H]4c4cc(F)ccc4F)nc23)OC1` [Example 98, (R)-2-((6-((2R,4S)-2-(2,5-difluorophenyl)-4-fluoropyrrolidin-1-yl)-1,5-naphthyridin-4-yl)amino)-5,6-dihydro-4H-1,3-oxazin-5-ol], for which the IC50 (on Recombinant human TRKC; on Recombinant human TRKB; in experiment [1]; in experiment [2]; on Recombinant human TRKA) was less than 1 nM throughout.
Regarding `Fc1ccc(F)c([C@H]2C[C@H](F)CN2c2ccc3ncc(F)c(-c4noc(C5CCNCC5)n4)c3n2)c1` [Example 73, 3-(6-((2R,4S)-2-(2,5-difluorophenyl)-4-fluoropyrrolidin-1-yl)-3-fluoro-1,5-naphthyridin-4-yl)-5-(piperidin-4-yl)-1,2,4-oxadiazole], the IC50 is less than 10 nM on Recombinant human TRKC; less than 10 nM on Recombinant human TRKB; less than 10 nM in experiment [1]; less than 10 nM in experiment [2]; less than 1 nM at Recombinant human TRKA.
Turning to `CC1(C)CC(n2cc(-c3ccnc4ccc(N5CCC[C@@H]5c5cc(F)ccc5F)nc34)cn2)CCN1` (stereo partly drawn) [Example 17, 2-((R)-2-(2,5-difluorophenyl)pyrrolidin-1-yl)-8-(1-(2,2-dimethylpiperidin-4-yl)-1H-pyrazol-4-yl)-1,5-naphthyridine], the IC50 at Recombinant human TRKC is less than 10 nM; at Recombinant human TRKB it was less than 10 nM; in experiment [1] it was less than 50 nM; in experiment [2], less than 10 nM; on Recombinant human TRKA, less than 1 nM.
Consider `O[C@H]1CCN(c2cnn(-c3ncnc4ccc(N5C[C@@H](F)C[C@@H]5c5cc(F)ccc5F)nc34)c2)C1` [Example 70, (S)-1-(1-(6-((2R,4S)-2-(2,5-difluorophenyl)-4-fluoropyrrolidin-1-yl)pyrido[3,2-d]pyrimidin-4-yl)-1H-pyrazol-4-yl)pyrrolidin-3-ol], for which the IC50 at Recombinant human TRKC is less than 1 nM; at Recombinant human TRKB it was less than 1 nM; in experiment [1], less than 10 nM; in experiment [2], less than 10 nM; on Recombinant human TRKA, less than 1 nM.

These data come from patent US20220017512A1 (SHANGHAI ENNOVABIO PHARMACEUTICALS CO., LTD., priority 2018, published 2022).
